Source: paper PMC11423509, “Structural basis of Pseudomonas aeruginosa penicillin binding protein 3 inhibition by the siderophore-antibiotic cefiderocol” (Chemical Science, 2024)
Where two headings read alike, the source gives them in different places.

Experiments:
P. aeruginosa PBP3 [1] = biological target: T1, P. aeruginosa PBP3 (Pseudomonas aeruginosa, UniProt G3XD46); test: Meropenem competition binding experiment, PBP3-observed mass spectrometry; details: 1 : 1 mixture of cephalosporin and meropenem (1 mM of each), 100 μM PBP3, 10 minutes co-incubation, quenched with formic acid
T1 construct: A gene encoding ftsI (PBP3, residues 50–579) from P. aeruginosa PAO1; made in house; host or cells: E. coli BL21(DE3)
T1 sequence (G3XD46 50-579): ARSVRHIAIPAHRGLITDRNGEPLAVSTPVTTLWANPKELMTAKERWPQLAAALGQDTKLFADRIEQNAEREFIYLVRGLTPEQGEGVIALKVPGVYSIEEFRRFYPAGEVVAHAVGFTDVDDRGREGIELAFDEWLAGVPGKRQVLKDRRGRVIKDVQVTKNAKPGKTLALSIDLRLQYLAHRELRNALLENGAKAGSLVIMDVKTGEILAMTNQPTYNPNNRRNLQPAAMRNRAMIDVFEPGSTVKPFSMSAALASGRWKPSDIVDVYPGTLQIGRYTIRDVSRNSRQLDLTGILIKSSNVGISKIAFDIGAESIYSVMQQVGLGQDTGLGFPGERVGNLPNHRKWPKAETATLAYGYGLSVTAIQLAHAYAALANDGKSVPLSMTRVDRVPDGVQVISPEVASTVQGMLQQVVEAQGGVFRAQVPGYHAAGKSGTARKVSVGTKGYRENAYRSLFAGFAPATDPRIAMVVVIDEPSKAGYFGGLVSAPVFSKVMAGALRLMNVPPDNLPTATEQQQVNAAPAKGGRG
Protocol: To further probe the relative rates of reaction of the four β-lactams with PBP3, a competitive binding experiment employing PBP3-observed mass spectrometry (MS) was developed. […] Following 10 minutes co-incubation with PBP3, the reactions were quenched with formic acid and analysed by protein-observed MS (under denaturing conditions) (Fig. 1).
The spectra shown are representative of three technical repeats.
Samples were then diluted in LC-MS-grade water (15 μM final concentration) and analysed using a Waters XeVo G2-S mass spectrometer coupled to a Waters Acquity-UPLC. 5 μL samples were injected onto a ThermoFisher Scientific ProSwift RP-4H (1 mm × 50 mm) column pre-equilibrated in 95%v/v water, 5%v/v MeCN. The column was eluted with a linear gradient from 5 to 95v/v% MeCN in water over ten minutes. All solvents contained 0.1%v/v formic acid. Data were analysed using MassLynx Version 4.1. The mass spectra obtained were deconvoluted using the MaxEnt1 algorithm.

P. aeruginosa PBP3 [2] = biological target: T1, P. aeruginosa PBP3; test: biochemical; assay type: binding; details: 311 nM PBP3, 30 nM Bocillin-FL; 10 min pre-incubation at 30 °C; mean ± standard error of three independent experiments; read-out: pIC50 (bocillin, n = 3) (converted)
Description: (§1) PBP3 transpeptidases are proposed to be key targets for the cephalosporins and most other β-lactam antibiotics.[13] […] In one method, the thioester substrate analogue S2d is hydrolysed by PBP3 (ESI Scheme S1 ^†) releasing D-alanine and a free thiol.[15,16] The latter reacts with monobromobimane (mBBr), a fluorescent dye, enabling measurement of the turnover rate and determination of pIC50 values.
A positive control without inhibitor and a negative control lacking both enzyme and inhibitor were prepared. In both cases the inhibitor/enzyme solution was replaced with an equal volume of buffer. Following incubation of the inhibitor with PBP3, Bocillin-FL (30 nM) was dispensed to initiate the reaction. Following a further incubation (10 min, 30 °C, 300 rpm) the fluorescence polarisation was measured using a BMG PHERAstar Microplate Reader (λEx/λEm = 480/520 nm) using black 384-well microplates (Greiner). The percentage inhibition of Bocillin-FL binding was calculated for each compound concentration by normalising with control wells. These measurements were used to calculate relative pIC50 values using the log([inhibitor]) against normalised response, fit, using GraphPad Prism version 10.2 (ESI Fig. S7 ^†).
Figure S7: Dose response curves for (A) cefiderocol, (B) ceftazidime, (C) cefepime and […]
assays were carried out with 311 nM PBP3 and 30 nM Bocillin-FL, with 10 minute pre-incubation with inhibitor compounds in 50 mM potassium phosphate, pH 7.4. […]
(§2) independent repeats are shown. Error bars represent standard deviations from three technical replicates measured simultaneously. Average pIC50 values and inhibitor structures are provided […]
(§3) (1 picture or pasted object on this page, not shown here)

P. aeruginosa PBP3 [3] = biological target: T1, P. aeruginosa PBP3; test: biochemical; details: 300 nM PBP3, 1.5 mM S2d, 0.5 mM mBBr; 10 min pre-incubation at 30 °C; mean ± standard error of three independent experiments; read-out: pIC50 (S2d, n = 3) (converted)
Description: as §1
A positive control without inhibitor and a negative control lacking both enzyme and inhibitor were prepared. […]
as §2, §3

PBP3 = test system: PBP3; parameters: method as in earlier work; details: Bocillin-FL assay under different conditions; ref 20 (Shapiro et al.); cited from earlier work

| SMILES | PBP3 complex formed in competition with meropenem (protein-observed MS) (P. aeruginosa PBP3 [1]) | IC50 (P. aeruginosa PBP3 [2]) [nM] | IC50 (P. aeruginosa PBP3 [3]) [nM] | PBP3 inhibition relative to meropenem (PBP3) |
| --- | --- | --- | --- | --- |
| CO/N=C(\C(=O)N[C@@H]1C(=O)N2C(C(=O)[O-])=C(C[N+]3(C)CCCC3)CS[C@H]12)c1csc(N)n1 [Cefepime, cefepime] | ∼1 : 1 mixture of cefepime and meropenem modified PBP | 100 | 39.8 |  |
| CC(C)(O/N=C(\C(=O)N[C@@H]1C(=O)N2C(C(=O)[O-])=C(C[N+]3(CCNC(=O)c4ccc(O)c(O)c4Cl)CCCC3)CS[C@H]12)c1csc(N)n1)C(=O)O [Cefiderocol, cefiderocol] | a small amount of cefiderocol modified PBP3 was observed | 100 | 50.1 |  |
| CC(C)(O/N=C(\C(=O)N[C@@H]1C(=O)N2C(C(=O)[O-])=C(C[n+]3ccccc3)CS[C@H]12)c1csc(N)n1)C(=O)O [Ceftazidime, ceftazidime] | exclusively meropenem-modified PBP3 | 251 | 79.4 | more inhibition with ceftazidime than meropenem |
